Test results from patent publication US7777033B2, “Monomer with anti-microbial character, polymer using the same, and manufacturing method thereof” (Micro Science Tech Co., Ltd., priority 2005, dated 2010).

Experiments:
S. aureus (KCTC 1621) = experiment: Strain reduction rate determination (shake flask method); format: cell-based; conditions: for Right After Inoculation (number of bacteria): 5 minutes after inoculation, 0.1 g powder or 2 ml stock solution; for After 24 hours (number of bacteria): 24 hours incubation with agitation; for Strain Reduction Rate: vs control after 24 hours
Method: (§1) The antimicrobial test was conducted by strain reduction rate determination (shake flask method). As the samples, 0.1 g of each of the compounds of Examples 9, 13, 15, and 18 to 23 was used in the form of powder, and in the case of Examples 28 to 31, 2 ml of their stock solution was used. The buffer solutions used in the antibacterial test were those prepared by dissolving each of 28.39 g of […] and 23.99 g of NaH2PO4 in 1000 ml of purified water, blending them in the volume of 72 ml and 28 ml respectively, adding 5 g of NaCl thereto, and then pouring purified water thereinto to adjust their total volume to 1000 ml. As the control, the same bacterial strains, to which no samples were added, were used. The samples were mixed with bacterial strain inocula (5.0×105), which were then incubated while agitating for 24 hours and then incubated on agar media. The reduction rate of strain number was determined by the following Equation 1. (Reduction Rate %)={(A−B)/A}×100 [Equation 1]
(§2) A: Number of Bacteria in Control after 24 Hours
(§3) B: Number of Bacteria in Sample after 24 Hours
(§4) In Table 6 above, “right after inoculation” refers to after 5 minutes from the time the bacterial strains were inoculated.

E. coli (KCTC 1682) = experiment: as above; format: cell-based; conditions: for Right After Inoculation (number of bacteria): 5 minutes after inoculation, 0.1 g powder or 2 ml stock solution; for After 24 hours (number of bacteria): 24 hours incubation with agitation; for Strain Reduction Rate: vs control after 24 hours
Method: as §1, §2, §3, §4

[1] = Light stability test (colour change over 3 months); format: physicochemical; conditions: for Discoloration: installed in the place where light was shut off
Excerpt: The antimicrobial monomers manufactured in Examples 9 and 10 and the antimicrobial acrylic copolymers manufactured in Examples 17 to 23 were used as samples. 3 g of each sample were respectively put in lucid glass test tubes, which were then placed under a direct ray of light. Also, according to the same method, the samples were collected in lucid glass test tubes which were then sealed with aluminum foil and installed in a place where indoor light was shut off.

SMILES | Right After Inoculation (number of bacteria) (S. aureus (KCTC 1621)) | After 24 hours (number of bacteria) (S. aureus (KCTC 1621)) | Strain Reduction Rate (S. aureus (KCTC 1621)) [%] | Right After Inoculation (number of bacteria) (E. coli (KCTC 1682)) | After 24 hours (number of bacteria) (E. coli (KCTC 1682)) | Strain Reduction Rate (E. coli (KCTC 1682)) [%] | Colour, Four Weeks Later ([1]; Direct Ray of Light) | Colour, Initial ([1]; Direct Ray of Light) | Colour, Ten Weeks Later ([1]; Direct Ray of Light) | Colour, Twelve Weeks Later ([1]; Direct Ray of Light) | Colour, Two Weeks Later ([1]; Direct Ray of Light) | Colour, Eight Weeks Later ([1]; Light Shut Off) | Colour, Four Weeks Later ([1]; Light Shut Off) | Colour, Initial ([1]; Light Shut Off) | Colour, Six Weeks Later ([1]; Light Shut Off) | Colour, Ten Weeks Later ([1]; Light Shut Off) | Colour, Twelve Weeks Later ([1]; Light Shut Off) | Colour, Two Weeks Later ([1]; Light Shut Off) | Discoloration [1]
C=C(C)C(=O)N1CCN(c2cc3c(cc2F)c(=O)c(C(=O)O)cn3C2CC2)CC1 [Example 13, 1-cyclopropyl-6-fluoro-1,4-dihydro-7-[4-(2-methyl-1-oxo-2-propenyl)-1-piperazinyl]-4-oxo-3-quinoline carboxylic acid] | not detected | not detected | 100 | not detected | not detected | 100 |  |  |  |  |  |  |  |  |  |  |  |  | 
C=C(C)C(=O)OCC(O)CN1CCN(c2cc3c(cc2F)c(=O)c(C(=O)O)cn3CC)CC1 (centres unmarked) [Example 10, 1-ethyl-6-fluoro-1,4-dihydro-7-[4-(2-hydroxy-6-methyl-4-oxa-5-oxo-6-heptenyl)-1-piperazinyl]-4-oxo-3-quinoline carboxylic acid] |  |  |  |  |  |  | orange | white | brown | brown | yellow | white | white | white | white | white | white | white | not discolored
C=C(C)C(=O)OCC(O)CN1CCN(c2cc3c(cc2F)c(=O)c(C(=O)O)cn3C2CC2)CC1 (centres unmarked) [Example 9, 1-cyclopropyl-6-fluoro-1,4-dihydro-7-[4-(2-hydroxy-6-methyl-4-oxa-5-oxo-6-heptenyl)-1-piperazinyl]-4-oxo-3-quinoline carboxylic acid] | not detected | not detected | 100 | not detected | not detected | 100 | orange | white | brown | brown | yellow | white | white | white | white | white | white | white | not discolored
